Source: US8822517B2, “Arylosulfonamides for the treatment of CNS diseases” (Adamed SP. Z O.O., priority 2010, dated 2014)

Key:
[1] = target: dopaminergic D2 receptor (Homo sapiens, UniProt P14416); experiment: Binding assay D2S (h), [3H]methyl-spiperone, HEK-293 cells; parameters: expressed in transfected cells; host or cells: HEK-293 cells; conditions: read-out: D2 [%]
Method in brief: (§1)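 Compounds tested at a single 1×10^−6 M concentration against the listed radioligands; bound label counted by scintillation, with non-specific binding defined by excess unlabelled ligand and subtracted from total.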

[2] = target: T1, serotoninergic 5-HT1A receptor (Homo sapiens, UniProt P08908); experiment: Binding assay 5-HT1A (h), [3H]8-OH-DPAT, HEK-293 cells; parameters: expressed in transfected cells; host or cells: HEK-293 cells; conditions: read-out: 5-HT1A
T1 sequence (P08908 1-422): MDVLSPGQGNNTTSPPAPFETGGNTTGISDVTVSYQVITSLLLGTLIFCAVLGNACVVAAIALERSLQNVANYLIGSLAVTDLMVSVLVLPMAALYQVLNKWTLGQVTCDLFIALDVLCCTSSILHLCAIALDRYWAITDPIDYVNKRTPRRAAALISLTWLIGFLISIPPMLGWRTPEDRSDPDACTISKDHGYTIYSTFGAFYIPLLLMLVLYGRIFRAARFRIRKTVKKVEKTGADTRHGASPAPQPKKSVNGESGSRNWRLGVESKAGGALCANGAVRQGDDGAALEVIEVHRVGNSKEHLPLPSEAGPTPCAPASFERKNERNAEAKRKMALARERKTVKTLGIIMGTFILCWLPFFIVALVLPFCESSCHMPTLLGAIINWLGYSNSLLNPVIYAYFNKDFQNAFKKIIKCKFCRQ
Method in brief: as §1

[3] = target: T2, serotonine transporter (SERT) receptor (Homo sapiens, UniProt P31645); experiment: Binding assay SERT (h), [3H]imipramine, CHO cells; conditions: read-out: SERT [%]
T2 construct: expressed in transfected cells; host or cells: CHO cells
Method in brief: as §1

[4] = target: serotoninergic 5-HT6 receptor (Homo sapiens, UniProt P50406); experiment: Binding assay 5-HT6 (h), [3H]LSD, CHO cells; parameters: expressed in transfected cells; host or cells: CHO cells; conditions: read-out: 5-HT6
Method in brief: as §1

[5] = target: serotoninergic 5-HT2A receptor (Homo sapiens, UniProt P28223); experiment: Binding assay 5-HT2A (h), [3H]ketanserin, HEK-293 cells; parameters: expressed in transfected cells; host or cells: HEK-293 cells; conditions: read-out: 5-HT2A
Method in brief: as §1

[6] = tested on: adrenergic α1 receptor; experiment: Binding assay α1 (non-selective), [3H]prazosin, rat cerebral cortex; conditions: percent inhibition of control specific binding; compounds tested at 1×10^−6 M
Method in brief: as §1

[7] = target: dopaminergic D3 receptor (Homo sapiens, UniProt P35462); experiment: Binding assay D3 (h), [3H]methyl-spiperone, CHO cells; parameters: expressed in transfected cells; host or cells: CHO cells; conditions: read-out: D3 [%]
Method in brief: as §1

[8] = target: serotoninergic 5-HT7 receptor (Homo sapiens, UniProt P34969); experiment: Binding assay 5-HT7 (h), [3H]LSD, CHO cells; parameters: expressed in transfected cells; host or cells: CHO cells; conditions: read-out: 5-HT7
Method in brief: as §1

Chain of dopaminergic D2 receptor (P14416 1-414 isoform P14416-2): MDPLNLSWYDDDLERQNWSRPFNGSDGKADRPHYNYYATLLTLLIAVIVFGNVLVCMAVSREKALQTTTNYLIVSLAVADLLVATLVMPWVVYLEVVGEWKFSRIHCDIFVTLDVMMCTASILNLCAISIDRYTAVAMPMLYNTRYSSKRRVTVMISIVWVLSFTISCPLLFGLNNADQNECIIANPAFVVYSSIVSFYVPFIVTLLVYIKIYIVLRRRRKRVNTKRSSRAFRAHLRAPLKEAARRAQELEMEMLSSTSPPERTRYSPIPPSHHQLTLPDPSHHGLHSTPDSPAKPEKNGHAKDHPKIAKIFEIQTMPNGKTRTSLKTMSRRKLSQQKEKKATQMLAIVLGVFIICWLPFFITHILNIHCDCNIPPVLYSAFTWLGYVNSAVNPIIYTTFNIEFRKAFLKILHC
Chain of serotoninergic 5-HT2A receptor (P28223 whole entry): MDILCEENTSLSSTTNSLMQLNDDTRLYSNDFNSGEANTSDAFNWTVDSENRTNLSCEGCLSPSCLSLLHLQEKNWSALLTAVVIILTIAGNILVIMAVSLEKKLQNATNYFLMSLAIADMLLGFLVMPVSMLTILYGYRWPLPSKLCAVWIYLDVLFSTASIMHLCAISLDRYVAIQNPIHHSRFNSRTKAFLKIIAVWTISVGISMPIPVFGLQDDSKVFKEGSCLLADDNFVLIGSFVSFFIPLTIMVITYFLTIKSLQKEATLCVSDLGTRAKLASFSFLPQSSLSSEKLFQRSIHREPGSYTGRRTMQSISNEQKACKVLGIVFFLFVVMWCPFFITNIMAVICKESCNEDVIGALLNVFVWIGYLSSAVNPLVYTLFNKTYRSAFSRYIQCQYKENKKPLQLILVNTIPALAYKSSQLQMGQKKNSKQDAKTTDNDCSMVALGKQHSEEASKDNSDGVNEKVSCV
Chain of dopaminergic D3 receptor (P35462 whole entry): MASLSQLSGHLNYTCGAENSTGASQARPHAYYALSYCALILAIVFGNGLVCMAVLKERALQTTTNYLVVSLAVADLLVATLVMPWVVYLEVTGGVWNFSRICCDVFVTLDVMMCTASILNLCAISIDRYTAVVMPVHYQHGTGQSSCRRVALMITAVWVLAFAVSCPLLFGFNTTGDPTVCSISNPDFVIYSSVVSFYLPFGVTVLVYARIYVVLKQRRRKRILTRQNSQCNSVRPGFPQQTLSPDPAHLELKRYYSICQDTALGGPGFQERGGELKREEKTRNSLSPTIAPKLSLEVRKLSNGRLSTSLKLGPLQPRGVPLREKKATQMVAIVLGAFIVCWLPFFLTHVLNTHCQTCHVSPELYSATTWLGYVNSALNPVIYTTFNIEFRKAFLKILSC
Chain of serotoninergic 5-HT6 receptor (P50406 whole entry): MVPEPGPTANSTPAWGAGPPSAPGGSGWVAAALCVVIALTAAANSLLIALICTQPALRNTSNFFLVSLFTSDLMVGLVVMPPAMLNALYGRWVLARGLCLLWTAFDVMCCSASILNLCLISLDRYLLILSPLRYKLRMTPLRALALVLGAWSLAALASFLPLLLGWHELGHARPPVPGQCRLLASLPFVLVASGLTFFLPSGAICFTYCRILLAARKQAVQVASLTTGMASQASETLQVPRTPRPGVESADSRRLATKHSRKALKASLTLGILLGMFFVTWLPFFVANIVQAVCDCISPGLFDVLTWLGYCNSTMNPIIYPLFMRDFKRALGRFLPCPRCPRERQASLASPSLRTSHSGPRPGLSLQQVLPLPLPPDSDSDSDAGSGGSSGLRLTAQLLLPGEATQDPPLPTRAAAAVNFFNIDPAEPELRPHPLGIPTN
T2 sequence (P31645 whole entry): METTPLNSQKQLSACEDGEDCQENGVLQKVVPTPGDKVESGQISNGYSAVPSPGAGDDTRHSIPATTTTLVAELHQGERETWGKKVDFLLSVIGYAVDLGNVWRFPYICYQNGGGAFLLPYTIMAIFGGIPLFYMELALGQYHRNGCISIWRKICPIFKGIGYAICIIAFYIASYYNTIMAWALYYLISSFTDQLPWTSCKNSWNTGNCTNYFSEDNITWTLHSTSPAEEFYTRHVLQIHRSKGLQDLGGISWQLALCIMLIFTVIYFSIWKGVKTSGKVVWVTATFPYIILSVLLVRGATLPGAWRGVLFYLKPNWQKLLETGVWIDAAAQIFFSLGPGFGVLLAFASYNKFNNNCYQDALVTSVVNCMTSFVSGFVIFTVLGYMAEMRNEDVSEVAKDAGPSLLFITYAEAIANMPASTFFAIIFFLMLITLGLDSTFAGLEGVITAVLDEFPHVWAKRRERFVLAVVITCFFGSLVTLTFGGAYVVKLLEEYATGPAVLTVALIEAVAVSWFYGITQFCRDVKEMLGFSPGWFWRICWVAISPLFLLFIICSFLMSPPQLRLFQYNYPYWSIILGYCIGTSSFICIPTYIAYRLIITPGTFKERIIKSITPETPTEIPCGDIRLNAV
Chain of serotoninergic 5-HT7 receptor (P34969 whole entry): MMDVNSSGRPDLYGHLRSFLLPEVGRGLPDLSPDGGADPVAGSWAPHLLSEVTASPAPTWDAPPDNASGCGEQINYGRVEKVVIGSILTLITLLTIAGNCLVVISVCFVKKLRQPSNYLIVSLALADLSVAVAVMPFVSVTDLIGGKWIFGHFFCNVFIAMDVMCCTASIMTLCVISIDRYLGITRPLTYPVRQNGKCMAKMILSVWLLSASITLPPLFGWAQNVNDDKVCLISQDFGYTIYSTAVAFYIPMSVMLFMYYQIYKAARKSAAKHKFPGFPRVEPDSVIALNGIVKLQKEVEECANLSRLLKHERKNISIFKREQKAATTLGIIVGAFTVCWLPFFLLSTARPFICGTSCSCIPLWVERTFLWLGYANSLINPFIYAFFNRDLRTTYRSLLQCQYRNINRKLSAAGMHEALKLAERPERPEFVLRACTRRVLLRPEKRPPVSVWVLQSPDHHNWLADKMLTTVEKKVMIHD

With `Cc1c(S(=O)(=O)NCCCCN2CCN(c3cccc4[nH]ccc34)CC2)sc2ccc(F)cc12` [Compound 364, 5-Fluoro-N-[4-[4-(1H-indol-4-yl)piperazin-1-yl]butyl]-3-methylbenzothiophene-2-sulphonamide] the inhibition at 1 µM [1] was 100%, the inhibition at 1 µM [2] was 92% and the inhibition at 1 µM [3] was 35%. For the same molecule, the inhibition at 1 µM [4] was 80%, the inhibition at 1 µM [5] was 89% and the “α1 [%]” value [6] was 87%. It also gave an inhibition at 1 µM [7] of 100% and an inhibition at 1 µM [8] of 91%.
Molecule `Cc1[nH]c2ccc(Cl)cc2c1C1=CCN(CCCCNS(=O)(=O)c2cccc3ccccc23)CC1` [Compound 366, N-[4-[4-(5-Chloro-2-methyl-1H-indol-3-yl)-3,6-dihydro-2H-pyridin-1-yl]butyl]-naphthalene-1-sulphonamide] has an inhibition at 1 µM [1] of 54%, an inhibition at 1 µM [2] of 34% and an inhibition at 1 µM [3] of 8%. For the same molecule, the inhibition at 1 µM [4] was 98%, the inhibition at 1 µM [5] was 49% and the “α1 [%]” value [6] was 8%. For the same molecule, the inhibition at 1 µM [7] was 81% and the inhibition at 1 µM [8] was 53%.
In the case of `Cc1[nH]c2ccc(Cl)cc2c1C1=CCN(CCCCNS(=O)(=O)c2cccc(O)c2)CC1` [Compound 369, N-[4-[4-(5-Chloro-2-methyl-1H-indol-3-yl)-3,6-dihydro-2H-pyridin-1-yl]butyl]-3-hydroxybenzenesulphonamide], the inhibition at 1 µM [1] is reported as 67%, the inhibition at 1 µM [2] is reported as 62% and the inhibition at 1 µM [3] is reported as 29%. For the same molecule, the inhibition at 1 µM [4] was 99%, the inhibition at 1 µM [5] was 79% and the “α1 [%]” value [6] was 50%. It also gave an inhibition at 1 µM [7] of 97% and an inhibition at 1 µM [8] of 7%.
`O=S(=O)(NCCCCN1CCN(c2cccc3c2OCCO3)CC1)c1cccc2ccccc12` [Compound 385, N-[4-[4-(2,3-Dihydro-1,4-benzodioxin-5-yl)piperazin-1-yl]butyl]naphthalene-1-sulphonamide] was tested, and the inhibition at 1 µM [1] was 75%, the inhibition at 1 µM [2] was 103% and the inhibition at 1 µM [3] was 6%. The inhibition at 1 µM [4] was 10%, the inhibition at 1 µM [5] was 77% and the “α1 [%]” value [6] was 96%. It also gave an inhibition at 1 µM [7] of 89% and an inhibition at 1 µM [8] of 99%.
Molecule `O=S(=O)(NCCCCN1CCN(c2cccc3c2OCCO3)CC1)c1ccc2ccccc2c1` [Compound 386, N-[4-[4-(2,3-Dihydro-1,4-benzodioxin-5-yl)piperazin-1-yl]butyl]naphthalene-2-sulphonamide] has an inhibition at 1 µM [1] of 70%, an inhibition at 1 µM [2] of 96% and an inhibition at 1 µM [3] of -5%. The inhibition at 1 µM [4] was 1%, the inhibition at 1 µM [5] was 65% and the “α1 [%]” value [6] was 96%. The inhibition at 1 µM [7] was 88% and the inhibition at 1 µM [8] was 82%.
`O=S(=O)(NCCCCN1CCN(c2cccc3c2OCCO3)CC1)c1cccc(F)c1` [Compound 388, N-[4-[4-(2,3-Dihydro-1,4-benzodioxin-5-yl)piperazin-1-yl]butyl]-3-fluorobenzenesulphonamide] was tested, and the inhibition at 1 µM [1] was 50%, the inhibition at 1 µM [2] was 92% and the inhibition at 1 µM [3] was -28%. For the same molecule, the inhibition at 1 µM [4] was -20%, the inhibition at 1 µM [5] was 19% and the “α1 [%]” value [6] was 91%. The inhibition at 1 µM [7] was 83% and the inhibition at 1 µM [8] was 90%.
In the case of `O=S(=O)(NCCCCN1CCN(c2cccc3c2OCCO3)CC1)c1ccc(F)c(F)c1` [Compound 389, N-[4-[4-(2,3-Dihydro-1,4-benzodioxin-5-yl)piperazin-1-yl]butyl]-3,4-difluorobenzenesulphonamide], the inhibition at 1 µM [1] is reported as 50%, the inhibition at 1 µM [2] is reported as 118% and the inhibition at 1 µM [3] is reported as 44%. The inhibition at 1 µM [4] was 19%, the inhibition at 1 µM [5] was 56% and the “α1 [%]” value [6] was 93%. The inhibition at 1 µM [7] was 85% and the inhibition at 1 µM [8] was 93%.
Work on `O=S(=O)(NCCCCN1CCN(c2cccc3c2OCCO3)CC1)c1cccc(Cl)c1` [Compound 390, 3-Chloro-N-[4-[4-(2,3-dihydro-1,4-benzodioxin-5-yl)piperazin-1-yl]butyl]benzenesulphonamide] yielded an inhibition at 1 µM [1] of 61%, an inhibition at 1 µM [2] of 101% and an inhibition at 1 µM [3] of -15%. For the same molecule, the inhibition at 1 µM [4] was 26%, the inhibition at 1 µM [5] was 59% and the “α1 [%]” value [6] was 73%. The inhibition at 1 µM [7] was 81% and the inhibition at 1 µM [8] was 66%.
With `O=S(=O)(NCCCCN1CCN(c2cccc3c2OCCO3)CC1)c1cccc(Br)c1` [Compound 391, 3-Bromo-N-[4-[4-(2,3-dihydro-1,4-benzodioxin-5-yl)piperazin-1-yl]butyl]benzenesulphonamide] the inhibition at 1 µM [1] was 76%, the inhibition at 1 µM [2] was 97% and the inhibition at 1 µM [3] was -28%. For the same molecule, the inhibition at 1 µM [4] was 19%, the inhibition at 1 µM [5] was 68% and the “α1 [%]” value [6] was 90%. For the same molecule, the inhibition at 1 µM [7] was 85% and the inhibition at 1 µM [8] was 92%.
In the case of `O=S(=O)(NCCCCN1CCN(c2cccc3c2OCCO3)CC1)c1ccc(F)c(Cl)c1` [Compound 392, 3-Chloro-N-[4-[4-(2,3-dihydro-1,4-benzodioxin-5-yl)piperazin-1-yl]butyl]-4-fluorobenzenesulphonamide], the inhibition at 1 µM [1] is reported as 57%, the inhibition at 1 µM [2] is reported as 100% and the inhibition at 1 µM [3] is reported as -11%. The inhibition at 1 µM [4] was 7%, the inhibition at 1 µM [5] was 64% and the “α1 [%]” value [6] was 99%. For the same molecule, the inhibition at 1 µM [7] was 93% and the inhibition at 1 µM [8] was 91%.
In the case of `O=S(=O)(NCCCCN1CCN(c2cccc3c2OCCO3)CC1)c1cccc(O)c1` [Compound 393, N-[4-[4-(2,3-Dihydro-1,4-benzodioxin-5-yl)piperazin-1-yl]butyl]-3-hydroxybenzenesulphonamide], the inhibition at 1 µM [1] is reported as 46%, the inhibition at 1 µM [2] is reported as 93% and the inhibition at 1 µM [3] is reported as -7%. The inhibition at 1 µM [4] was 9%, the inhibition at 1 µM [5] was 47% and the “α1 [%]” value [6] was 91%. The inhibition at 1 µM [7] was 92% and the inhibition at 1 µM [8] was 91%.
`COc1cccc(S(=O)(=O)NCCCCN2CCN(c3cccc4c3OCCO4)CC2)c1` [Compound 394, N-[4-[4-(2,3-Dihydro-1,4-benzodioxin-5-yl)piperazin-1-yl]butyl]-3-methoxybenzenesulphonamide] showed an inhibition at 1 µM [1] of 72%, an inhibition at 1 µM [2] of 95% and an inhibition at 1 µM [3] of 12%. The inhibition at 1 µM [4] was 18%, the inhibition at 1 µM [5] was 71% and the “α1 [%]” value [6] was 92%. It also gave an inhibition at 1 µM [7] of 86% and an inhibition at 1 µM [8] of 98%.
In the case of `Cc1cccc(S(=O)(=O)NCCCCN2CCN(c3cccc4c3OCCO4)CC2)c1` [Compound 395, N-[4-[4-(2,3-Dihydro-1,4-benzodioxin-5-yl)piperazin-1-yl]butyl]-3-methylbenzenesulphonamide], the inhibition at 1 µM [1] is reported as 61%, the inhibition at 1 µM [2] is reported as 75% and the inhibition at 1 µM [3] is reported as 69%. For the same molecule, the inhibition at 1 µM [4] was -35%, the inhibition at 1 µM [5] was 61% and the “α1 [%]” value [6] was 92%. The inhibition at 1 µM [7] was 87% and the inhibition at 1 µM [8] was 83%.
`O=S(=O)(NCCCCN1CCN(c2cccc3c2OCCO3)CC1)c1ccc(-c2ccccc2)cc1` [Compound 396, N-[4-[4-(2,3-Dihydro-1,4-benzodioxin-5-yl)piperazin-1-yl]butyl]-4-phenylbenzenesulphonamide] was tested, and the inhibition at 1 µM [1] was 68%, the inhibition at 1 µM [2] was 85% and the inhibition at 1 µM [3] was 16%. For the same molecule, the inhibition at 1 µM [4] was 31%, the inhibition at 1 µM [5] was 58% and the “α1 [%]” value [6] was 84%. It also gave an inhibition at 1 µM [7] of 86% and an inhibition at 1 µM [8] of 88%.
`O=S(=O)(NCCCCN1CCN(c2cccc3c2OCCO3)CC1)c1ccc(Cl)s1` [Compound 398, 5-Chloro-N-[4-[4-(2,3-dihydro-1,4-benzodioxin-5-yl)piperazin-1-yl]butyl]thiophene-2-sulphonamide] showed an inhibition at 1 µM [1] of 73%, an inhibition at 1 µM [2] of 107% and an inhibition at 1 µM [3] of -7%. For the same molecule, the inhibition at 1 µM [4] was 3%, the inhibition at 1 µM [5] was 38% and the “α1 [%]” value [6] was 97%. The inhibition at 1 µM [7] was 90% and the inhibition at 1 µM [8] was 97%.
`O=S(=O)(NCCCCN1CCN(c2cccc3c2OCCO3)CC1)c1cc2ccccc2s1` [Compound 399, N-[4-[4-(2,3-Dihydro-1,4-benzodioxin-5-yl)piperazin-1-yl]butyl]benzothiophene-2-sulphonamide] gave an inhibition at 1 µM [1] of 79%, an inhibition at 1 µM [2] of 99% and an inhibition at 1 µM [3] of -22%. The inhibition at 1 µM [4] was 23%, the inhibition at 1 µM [5] was 82% and the “α1 [%]” value [6] was 99%. The inhibition at 1 µM [7] was 92% and the inhibition at 1 µM [8] was 96%.
Work on `O=S(=O)(NCCCCN1CCN(c2cccc3c2OCCO3)CC1)c1csc2ccccc12` [Compound 400, N-[4-[4-(2,3-Dihydro-1,4-benzodioxin-5-yl)piperazin-1-yl]butyl]benzothiophene-3-sulphonamide] yielded an inhibition at 1 µM [1] of 83%, an inhibition at 1 µM [2] of 100% and an inhibition at 1 µM [3] of 30%. The inhibition at 1 µM [4] was 9%, the inhibition at 1 µM [5] was 66% and the “α1 [%]” value [6] was 94%. For the same molecule, the inhibition at 1 µM [7] was 88% and the inhibition at 1 µM [8] was 95%.
